Entries after “also recorded” stand apart in the source; their conditions may differ. Like-named read-outs stand apart in the source and are kept apart here.
How the values were obtained:
C2C12 cells = experiment: Viability of C2C12 cells visualized by light microscopy; assay type: cell-based, mouse; conditions: 24 h
PANC-1 cells = experiment: Apoptosis assessment (Annexin V / 7AAD); assay type: cell-based
Text: Annexin V Apoptosis with 7-AAD has been specifically designed for the identification of apoptotic and necrotic cells. Annexin V (or Annexin A5) is a member of the annexin family of intracellular proteins that binds to phosphatidylserine (PS) in a calcium-dependent manner. PS is normally only found on the intracellular leaflet of the plasma membrane in healthy cells, but during early apoptosis, membrane asymmetry is lost and PS translocates to the external leaflet. Fluorochrome-labeled Annexin V can then be used to specifically target and identify apoptotic cells. Annexin V binding alone cannot differentiate between apoptotic and necrotic cells. To help distinguish between the necrotic and apoptotic cells 7-amino-actinomycin D (7-AAD) is used. Early apoptotic cells will exclude 7-AAD, while late stage apoptotic cells will stain positively, due to the passage of these dyes into the nucleus where they bind to DNA. 7-AAD (7-amino-actinomycin D) has a high DNA binding constant and is efficiently excluded by intact cells. It is useful for DNA analysis and dead cell discrimination during flow cytometric analysis. When excited by 488 laser light, 7-AAD fluorescence is detected in the far red range of the spectrum (650 nm long-pass filter).
Cell cycle and apoptosis assessment. Cell cycle and apoptosis were assessed by flow cytometry after single staining with propidium iodide (PI, BD Pharmingen) or double staining with AnnexinV-FITC (BD Pharmingen) and 7AAD (BD Pharmingen), respectively. Specifically, for cell cycle analysis, cells were washed twice with cold PBS and fixed in 70% ethanol overnight at 4° C. Fixed cells were collected at 1800 rpm for 10 min and stained with PBS containing PI and DNase-free RNase A (Sigma-Aldrich) for 1 h at room temperature in the dark. DNA content was measured by BD LSRII flow cytometer and cell further analyzed using program of cell cycle analysis in FloJo (Ashland, OR). The chicken erythrocyte nuclei singlets (CEN, Biosure) were used as the reference. For apoptosis assessment, live cells were collected, washed twice with cold PBS, resuspended in Binding Buffer and stained with AnnexinV-FITC and 7AAD for 15 min at room temperature in the dark. Signals from FL1 and FL3 channels were collected by MACSQuant analyzer and further analyzed using FloJo. Early apoptosis was defined as AnnexinV+/7AAD−, and late apoptosis was observed as AnnexinV+/7AAD+.

[1] = tested on: HER2 at the plasma membrane of SKBr3 cells; experiment: Immunofluorescence of HER2 architecture at the plasma membrane; assay type: cell-based
Experimental: We next investigated the biological significance of the unique association of HER^2 with Grp94 at the plasma membrane of SKBr3 cells. Because the Grp94 inhibitors described here target the ATP-binding pocket of Grp94, they affect Grp94 chaperone activity. Therefore we hypothesized that Grp94 may act on HER^2 at the plasma membrane to stabilize the protein and to regulate its function.
Immunofluorescence. Cells were seeded and grown onto culture slides (BD Falcon) for 24 hrs. After washing with cold PBS, cells were fixed by treating at 4° C. for 20 min with 4% paraformaldehyde in PBS, permeabilized with 0.1% Triton X-100 in PBS containing 10% FBS for 10 min, and blocked with 2% BSA for 1 hr. After washing for four times with PBS, primary antibodies were added onto the chambers and cell were incubated overnight at 4° C., washed again with PBS followed by incubation with the secondary antibody for 1 hr at room temperature. Cell were washed and then mounted and observed under microscope (Leica Upright Confocal SP5). The primary antibodies used in the assay are against: HER^2 (Zymed, 28004), Grp94 (Stressgen, SPA-850), Hsp70 (Stressgen, SPA-810), LAMP1-FITC (Abcam, ab25406), EEA1 (Abcam, ab70521), 58K Golgi-FITC (Abcam, ab27043) and Calnexin (BD, 610523).

[2] = tested on: IGF-II secretion by differentiated C2C12 cells; experiment: C2C12 differentiation and IGF-II secretion assay; assay type: cell-based, mouse; conditions: 24 hrs treatment
Text: C2C12 differentiation and IGF-II secretion assay (Wanderling, S. et al. GRP94 is essential for mesoderm induction and muscle development because it regulates insulin-like growth factor secretion. Mol. Biol. Cell 18, 3764-75 (2007); Ostrovsky, O., Ahmed, N.T. & Argon, Y. The chaperone activity of GRP94 toward insulin-like growth factor II is necessary for the stress response to serum deprivation. Mol. Biol. Cell 20, 1855-64 (2009)). C2C12 cells were maintained and cultured in DMEM in the presence of 10% FBS and 1% penicillin/streptomycin (Culture medium). C2C12 is an immortal line of mouse skeletal myoblasts originally derived from satellite cells from the thigh muscle of a two month old female mouse donor. These cells differentiate well into myocytes under appropriate culture conditions. […] Secreted IGF-II was quantified by using IGF-II mouse ELISA kit (Abcam, AB100696) according to the manufacturer's instructions. […] The bound IGF-II was detected with a biotinylated anti-IGF-II antibody. After the sequential incubation with HRP conjugated streptavidin, TMB One-step substrate reagent and the Stop solution, the absorbance was measured at 450 nm. The secreted IGF-II was quantified against a standard curve generated with recombinant IGF-II provided by the kit.

[3] = tested on: Hsp70 induction and AKT degradation (cytosolic Hsp90 hallmarks) in C2C12 cells; experiment: Western blot of Hsp70 induction and AKT degradation in C2C12 cells; assay type: cell-based, mouse; conditions: 24 hrs
Experimental: Cell fractionation and immunoblotting. Cells were either treated with DMSO (vehicle) or indicated compounds for 24 hr and lysed in RIPA buffer (50 mM Tris-HCl, pH 7.4, 150 mM NaCl, 0.5% sodium deoxycholate and 0.5% NP40) supplemented with cocktail protease inhibitors (Roche) to produce whole cell lysates. Lysates for cytosol and membrane fractions were harvested using ProteoExtract Subcellular Proteome Extraction Kit (Calbiochem) following the manufacturer's instructions. Protein concentrations were determined using BCA kit (Pierce) according to the manufacturer's instructions. […] After washing off the excess antibodies, the membranes were incubated with the corresponding horseradish peroxidase (HRP) conjugated secondary antibody. Blots were visualized by autoradiography using the Enhanced Chemiluminescence Detection System (GE Healthcare) according to manufacturer's instructions. For all gels 3-actin was used as a protein loading control.

[4] = tested on: Toll-like receptor 9 (TLR9) trafficking in HEK293 cells transfected with HA-TLR9; experiment: TLR9-trafficking assay; assay type: cell-based, human; conditions: 24 h treatment
Experimental: TLR^9-trafficking assay (Yang, Y. et al. Heat shock protein gp96 is a master chaperone for toll-like receptors and is important in the innate function of macrophages. Immunity 26, 215-26 (2007)). HEK 293T cells were transfected with pUNO-hTLR9-HA (Invivogen) using X-tremgene HP (Roche) according to the manufacturer's instructions. At 24 hrs post-transfection, cells were split onto cell culture chamber slides (Lab-Tek). Cells were then treated for 24 hrs with indicated compound at varying concentrations. After treatment, cells were fixed for 20 min in 4% paraformaldehyde in PBS, permeabilized with 0.1% Triton-X 100 in PBS for 10 min, blocked with 3% BSA in PBS for 30 min, followed by staining for 1 hr with an anti-HA antibody (Abcam, ab9110) or a normal rabbit IgG. Cells were washed with PBS, stained with an anti-rabbit-Cy3 antibody (Invitrogen) and finally mounted in the dark at 4° C. with Prolong Gold Antifade reagent (with DAPI). Cells were visualized under a confocal microscope (Leica Upright Confocal SP5). Fluorescence intensity was quantified using MetaMorph Microscopy Automation and Image Analysis Software (Molecular Devices Inc.) and normalized to the cell number.

[5] = tested on: Hsp70 induction in HEK293 cells; experiment: Hsp70 induction in HA-TLR9 transfected HEK293 cells; assay type: cell-based, human; conditions: 24 h
Experimental: Cell fractionation and immunoblotting. Cells were either treated with DMSO (vehicle) or indicated compounds for 24 hr and lysed in RIPA buffer (50 mM Tris-HCl, pH 7.4, 150 mM NaCl, 0.5% sodium deoxycholate and 0.5% NP40) supplemented with cocktail protease inhibitors (Roche) to produce whole cell lysates. Lysates for cytosol and membrane fractions were harvested using ProteoExtract Subcellular Proteome Extraction Kit (Calbiochem) following the manufacturer's instructions. Protein concentrations were determined using BCA kit (Pierce) according to the manufacturer's instructions. The protein lysates ([…]) were electrophoretically resolved by SDS-PAGE, transferred onto nitrocellulose membranes and probed with the indicated primary antibodies against: HER^2 (Zymed, 28004), Hsp70 (Stressgen, SPA-810), Grp94 (Stressgen, SPA-850), Hsp90α (Abcam, Ab2928), Hsp90β (StressMarq, SMC-107B), Grp78 (Cell Signaling, 3183), Raf-1 (Santa Cruz, sc-133), phospho-Raf-1 (Cell Signaling, 9421), MEK1/2 (Cell Signaling, 8727), phospho-MEK1/2 (Cell Signaling, 9154), ERK1/2 (Cell Signaling, 4695), phospho-ERK1/2 (Cell Signaling, 4370), AKT (Cell Signaling, 9272), GM130 (Cell Signaling, 2296), Flotillin 2 (Cell Signaling, 3436), Histone H4 (Cell Signaling, 2592), Histone H1 (Santa Cruz, sc-8030), Caspase 3 (Cell Signaling, 9665), cleaved PARP (Promega, G7341), a-tubulin (Sigma, T5168) and 3-actin (Sigma, A1978). After washing off the excess antibodies, the membranes were incubated with the corresponding horseradish peroxidase (HRP) conjugated secondary antibody. Blots were visualized by autoradiography using the Enhanced Chemiluminescence Detection System (GE Healthcare) according to manufacturer's instructions. […]
TLR^9-trafficking assay (Yang, Y. et al. Heat shock protein gp96 is a master chaperone for toll-like receptors and is important in the innate function of macrophages. Immunity 26, 215-26 (2007)). […] Fluorescence intensity was quantified using MetaMorph Microscopy Automation and Image Analysis Software (Molecular Devices Inc.) and normalized to the cell number.

Grp94 = Grp94 (Canis lupus familiaris, UniProt P41148); conditions: read-out: Grp94; FP competition, 6 nM Cy3B-GM, 10 nM protein, 4° C. for 24 h
Chain of Grp94 (P41148 with tags, fused parts or gaps DELINS287-327GGGG): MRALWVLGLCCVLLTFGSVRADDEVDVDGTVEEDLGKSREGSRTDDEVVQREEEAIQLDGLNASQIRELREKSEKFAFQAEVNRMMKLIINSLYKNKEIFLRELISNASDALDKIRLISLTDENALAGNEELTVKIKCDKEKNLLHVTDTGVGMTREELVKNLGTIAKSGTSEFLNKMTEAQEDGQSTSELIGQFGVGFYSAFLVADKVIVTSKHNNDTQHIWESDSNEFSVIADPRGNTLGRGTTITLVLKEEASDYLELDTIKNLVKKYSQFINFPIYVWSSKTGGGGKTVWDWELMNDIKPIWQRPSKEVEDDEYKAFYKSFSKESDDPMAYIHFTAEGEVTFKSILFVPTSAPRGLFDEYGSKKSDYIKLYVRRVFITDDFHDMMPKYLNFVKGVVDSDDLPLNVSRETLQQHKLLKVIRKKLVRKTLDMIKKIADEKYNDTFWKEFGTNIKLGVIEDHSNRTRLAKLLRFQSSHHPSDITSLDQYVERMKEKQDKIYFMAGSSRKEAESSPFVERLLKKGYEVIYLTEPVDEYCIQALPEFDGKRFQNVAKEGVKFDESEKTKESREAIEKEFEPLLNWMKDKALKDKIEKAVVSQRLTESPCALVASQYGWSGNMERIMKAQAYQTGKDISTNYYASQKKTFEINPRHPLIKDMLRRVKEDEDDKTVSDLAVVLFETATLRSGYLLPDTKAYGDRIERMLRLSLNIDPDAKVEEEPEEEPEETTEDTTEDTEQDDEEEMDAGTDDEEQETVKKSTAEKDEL

Hsp90β = Hsp90β (Homo sapiens, UniProt P08238)
Chain of Hsp90β (P08238 whole entry): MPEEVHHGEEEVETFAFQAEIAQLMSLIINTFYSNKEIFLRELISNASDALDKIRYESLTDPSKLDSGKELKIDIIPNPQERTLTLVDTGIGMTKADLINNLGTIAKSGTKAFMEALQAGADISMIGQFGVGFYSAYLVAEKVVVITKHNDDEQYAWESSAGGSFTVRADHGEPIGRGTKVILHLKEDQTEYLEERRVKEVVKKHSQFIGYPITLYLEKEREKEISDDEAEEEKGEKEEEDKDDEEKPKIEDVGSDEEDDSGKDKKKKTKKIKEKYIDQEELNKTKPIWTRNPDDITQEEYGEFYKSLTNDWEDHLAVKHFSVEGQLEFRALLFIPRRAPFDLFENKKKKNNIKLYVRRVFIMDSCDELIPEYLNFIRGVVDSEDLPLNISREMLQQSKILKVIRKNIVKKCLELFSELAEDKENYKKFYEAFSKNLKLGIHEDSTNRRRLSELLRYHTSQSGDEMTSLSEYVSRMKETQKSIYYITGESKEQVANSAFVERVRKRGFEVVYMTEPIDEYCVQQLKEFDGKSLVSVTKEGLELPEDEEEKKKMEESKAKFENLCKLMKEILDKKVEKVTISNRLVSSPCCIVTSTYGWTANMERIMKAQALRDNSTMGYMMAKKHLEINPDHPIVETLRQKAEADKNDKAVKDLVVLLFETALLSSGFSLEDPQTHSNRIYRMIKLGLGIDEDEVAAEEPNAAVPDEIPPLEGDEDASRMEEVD

Trap-1 [6] = molecular target: T1, Trap-1 (Homo sapiens, UniProt Q12931); conditions: read-out: TRAP-1
T1 sequence (Q12931 60-704): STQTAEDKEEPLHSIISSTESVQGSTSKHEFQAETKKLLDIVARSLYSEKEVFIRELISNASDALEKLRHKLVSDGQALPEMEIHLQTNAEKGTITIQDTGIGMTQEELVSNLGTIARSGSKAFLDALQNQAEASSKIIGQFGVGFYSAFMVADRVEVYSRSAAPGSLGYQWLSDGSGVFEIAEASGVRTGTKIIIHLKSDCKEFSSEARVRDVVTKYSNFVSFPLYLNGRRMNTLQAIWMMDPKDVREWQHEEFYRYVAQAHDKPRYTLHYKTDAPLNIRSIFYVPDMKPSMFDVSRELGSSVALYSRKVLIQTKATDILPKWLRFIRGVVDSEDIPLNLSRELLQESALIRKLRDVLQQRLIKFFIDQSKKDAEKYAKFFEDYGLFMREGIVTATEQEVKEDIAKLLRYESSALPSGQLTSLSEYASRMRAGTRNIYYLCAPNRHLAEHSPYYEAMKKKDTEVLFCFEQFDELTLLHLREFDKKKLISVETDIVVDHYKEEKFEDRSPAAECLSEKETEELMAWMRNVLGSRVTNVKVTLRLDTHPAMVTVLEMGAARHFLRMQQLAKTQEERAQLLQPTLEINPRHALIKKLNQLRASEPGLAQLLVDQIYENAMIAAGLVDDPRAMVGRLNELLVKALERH

Hsp90α [7] = molecular target: T2, Hsp90α (Homo sapiens, UniProt P07900); experiment: biochemical
97 kinases = experiment: Kinase screen (Discoverx scanEDGE / KINOMEscan); assay type: binding; conditions: tested at 10 uM
Hsp90α [8] = molecular target: T2, Hsp90α
[9] = tested on: Human Umbilical Vein Endothelial Cells (HUVECs); experiment: Angiogenesis studies with HUVEC cells; assay type: cell-based
[10] = tested on: TLR9 ligand CpG DNA induced TNF-α production in RAW 264.7 macrophages; experiment: TNFα ELISA, CpG DNA stimulated macrophages; assay type: cell-based, mouse
Trap-1 [11] = molecular target: T1, Trap-1; conditions: relative to Hsp90
[12] = tested on: PANC1 EGFR-overexpressing cells; conditions: Mol Cancer Ther 2006; 5:2051-2059; cited from earlier work

SMILES | induction of apoptosis (PANC-1 cells) | AKT degradation [3] | Hsp70 induction [3] | TLR9 trafficking [4] | Hsp70 induction [5] | IC50 (Hsp90β) [µM] | IC50 (Trap-1 [6]) [µM] | also measured
COC1=C2C[C@@H](C)C[C@H](OC)[C@H](O)[C@@H](C)/C=C(\C)[C@H](OC(N)=O)[C@@H](OC)/C=C\C=C(/C)C(=O)NC(=CC1=O)C2=O [GM, geldanamycin, reference compound] |  |  |  |  |  |  |  | toxicity to C2C12 cells (C2C12 cells): cell killing
COc1cc(Cc2nc3c(N)nc(F)nc3n2CCOC(C)C)cc(OC)c1OC [PU-29F] | very little effect | degradation of AKT; also recorded: degrade AKT | dose-dependent increase in Hsp90 levels; also recorded: induce Hsp70 | minimally effecting; also recorded: fails to inhibit TLR^9 trafficking | induces Hsp70 |  |  | effect on HER2 architecture at the plasma membrane [1]: failed to disturb the membrane HER^2 architecture; IGF-II secretion [2]: minimally effecting
C#CCCCn1c(Sc2ccc(Cl)cc2Cl)nc2c(N)ncnc21 [PU-H39] |  |  |  |  |  | > 300 | 145 ± 13.4 | IC50 (Grp94): 0.12 ± 0.04 µM; IC50 (Hsp90α [7]; FP competition, 6 nM Cy3B-GM, 10 nM protein, 4° C. for 24 h): > 300 µM; effect on the tested 97 kinases (97 kinases): no significant effect
C#CCCCn1cnc(N)c2nc(Sc3ccc(C)cc3C)nc1-2 [PU-H54] |  |  |  |  |  | > 250 | 54.1 ± 4.6 | IC50 (Hsp90α [7]): > 250 µM; affinity for Hsp90 (Hsp90α [8]): low affinity; HUVEC cell proliferation [9]: does not affect substantially the cell proliferation; angiogenic-like transformation of HUVECs induced by Grp94 and by peak 2 [9]: able to change the angiogenic-like transformation of HUVECs; also recorded: displays an anti-angiogenic effect; also recorded: inhibited; CpG DNA induced TNF-α production [10]: inhibited this response in a concentration dependent manner; also recorded: inhibit
CC(C)NCCCn1c(Sc2cc3c(cc2I)OCO3)nc2c(N)ncnc21 [PU-H71] | very little effect | degrade AKT | induce Hsp70 | inhibit TLR^9 trafficking | induce Hsp70 |  |  | decrease in binding efficacy for Trap-1 (Trap-1 [11]): 5 fold
C#Cc1cccc(Nc2ncnc3cc(OCCOC)c(OCCOC)cc23)c1 [erlotinib] |  |  |  |  |  |  |  | reported resistance of PANC1 cells [12]: resistant

— US12600725B2 (Memorial Sloan-Kettering Cancer Center, priority 2013, dated 2026)
